Laboratory results from PMC10140010 (Investigational New Drugs, 2023).
“And” between values parts separate entries of the source, which are not always exact repeats. Equal entries are not always repeated.

Legend:
[1] = target: AUR2 (Homo sapiens, UniProt O14965); assay: Z'-LYTE kinase selectivity; type: biochemical
[2] = target: T1, OATP1B1 (Homo sapiens, UniProt Q9Y6L6); assay: Uptake inhibitor investigation in HEK293 cells expressing transporter; type: in vitro ADME
T1 construct: No ESH6G27; host or cells: HEK293
T1 sequence (Q9Y6L6 1-691): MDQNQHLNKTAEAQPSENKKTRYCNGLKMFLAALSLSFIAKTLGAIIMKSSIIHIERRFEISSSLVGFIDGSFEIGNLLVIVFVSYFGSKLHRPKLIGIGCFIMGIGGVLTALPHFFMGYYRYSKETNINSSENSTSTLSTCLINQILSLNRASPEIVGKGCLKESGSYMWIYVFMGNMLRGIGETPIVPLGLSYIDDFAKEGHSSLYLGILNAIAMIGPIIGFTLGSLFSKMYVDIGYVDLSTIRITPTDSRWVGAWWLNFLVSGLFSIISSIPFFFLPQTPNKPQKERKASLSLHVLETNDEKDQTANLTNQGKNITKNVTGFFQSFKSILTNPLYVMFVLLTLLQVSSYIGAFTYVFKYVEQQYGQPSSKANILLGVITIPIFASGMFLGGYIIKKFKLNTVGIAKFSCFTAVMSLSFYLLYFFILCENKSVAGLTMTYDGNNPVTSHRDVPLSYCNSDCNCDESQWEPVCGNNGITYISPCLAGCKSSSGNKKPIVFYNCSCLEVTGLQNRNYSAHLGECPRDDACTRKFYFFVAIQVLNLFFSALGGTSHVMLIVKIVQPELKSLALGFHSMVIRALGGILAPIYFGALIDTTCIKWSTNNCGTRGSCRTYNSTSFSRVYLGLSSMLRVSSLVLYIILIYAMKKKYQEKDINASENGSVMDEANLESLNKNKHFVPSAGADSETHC
Protocol: (§3) Using a stably transfected cell line of HEK293 expressing transporter OATP1B1, OATP1B3 or OCT2, formal substrate investigation tests were performed for three concentration gradients (30 µM, 3 µM, 0.3 µM) of iruplinalkib.

[3] = target: ALK^WT (Homo sapiens, UniProt Q9UM73); assay: HTRF kinase activity assay; type: biochemical
Protocol: After the kinase proteins, Ulight-peptide species, adenosine triphosphate (ATP), and compound were mixed, the reaction was carried out at room temperature. Reactions were quenched by the addition of ethylene diamine tetraacetic acid buffer containing Eu antibody and XL665-streptavidin at the indicated time points. Plate reading was performed using an Envision (Perkin Elmer, MA, USA) multifunctional microplate reader.

[4] = tested on: phosphorylation of ROS1, AKT, ERK in NIH-3T3 (CD74-ROS1) cells; assay: Western blot of ROS1 and downstream signaling phosphorylation; type: cell-based; conditions: 2 h incubation
Protocol: (§1) In general, the cells were exposed to the drug and were harvested for western blot analysis. SDS-PAGE was used to separate the proteins of interest, which were then transferred to a nitrocellulose (NC) filtration membrane and soaked in a blocking solution [5% non-fat dry milk in tris-buffered saline with Tween 20 (TBST)] for 1 h at room temperature. Thereafter, the membrane was probed overnight with primary antibodies at 4℃ and washed three times with TBST. The corresponding secondary antibody diluent was added, incubated at room temperature for 1 h, and washed 3 times with TBST. After adding the enhanced chemiluminescence developer to the NC filtration membrane, it is developed in the imaging system (ChemiDoc™ XRS^+, BIO-RAD). See Supplementary Table 2 for details of the antibodies used.
(§2) It is reported that ROS1-mediated cell signaling pathways include RAS-RAF-MEK-ERK, PI3K-AKT-mTOR and JAK-STAT3 pathways. According to reports and the differences in the expression of signaling pathway proteins in different cells, the key signaling proteins in different signaling pathways were selected for research.

[5] = tested on: phosphorylation of ROS1, ERK, SHP-1 in Ba/F3 (SLC34A2-ROS1) cells; assay: as above; type: cell-based; conditions: 2 h incubation
Protocol: as §1, §2

[6] = tested on: P-gp/BCRP/MRP2; assay: ABC efflux transporter substrate investigation on Caco-2 cells; conditions: for efflux ratio at 0.5 µM / efflux ratio at 5 µM / efflux ratio at 50 µM: human
[7] = target: T2, MATE2K (Homo sapiens, UniProt Q86VL8); type: in vitro ADME
T2 construct: No ESHDG27; host or cells: HEK293

[8] = target: T3, MATE1 (Homo sapiens, UniProt Q96FL8); assay: in vitro
T3 sequence (Q96FL8 1-570): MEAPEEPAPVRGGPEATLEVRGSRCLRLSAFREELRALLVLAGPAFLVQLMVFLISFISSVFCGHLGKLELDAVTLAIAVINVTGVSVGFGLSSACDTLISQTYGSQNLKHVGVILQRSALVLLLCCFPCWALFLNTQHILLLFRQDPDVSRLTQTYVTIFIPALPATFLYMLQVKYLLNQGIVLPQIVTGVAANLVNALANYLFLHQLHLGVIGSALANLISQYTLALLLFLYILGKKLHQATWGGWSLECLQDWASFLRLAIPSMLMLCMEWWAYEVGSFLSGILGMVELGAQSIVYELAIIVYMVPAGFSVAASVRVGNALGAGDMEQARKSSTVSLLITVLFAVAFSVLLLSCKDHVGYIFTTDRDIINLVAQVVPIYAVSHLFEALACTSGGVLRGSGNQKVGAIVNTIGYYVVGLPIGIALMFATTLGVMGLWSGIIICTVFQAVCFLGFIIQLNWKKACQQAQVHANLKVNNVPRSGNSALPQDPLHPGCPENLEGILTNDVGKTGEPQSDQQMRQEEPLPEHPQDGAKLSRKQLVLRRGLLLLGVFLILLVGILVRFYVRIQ
Protocol: as §3

[9] = tested on: OATP1B3; assay: Uptake inhibitor investigation in HEK293 cells expressing transporter; type: in vitro ADME
[10] = target: T1, OATP1B1; assay: Uptake substrate investigation in HEK293 cells expressing transporter; type: in vitro ADME; conditions: for Ratio of uptake transit activity / Uptake transport activity, Net value: OATP1B1-293 vs MOCK293
Description: The engineered NIH-3T3 (CD74-ROS1 fusion gene) cells was obtained from Nanjing GenScript Biotechnology Co., Ltd. The engineered Ba/F3 (SLC34A2-ROS1 fusion gene) cell line was obtained from Kyinno Biotechnology (Beijing) Co., Ltd. The HCC-78 (SLC34A2-ROS1 fusion gene) cell line was purchased from Shanghai Hongshun Biotechnology Co., Ltd. The engineered NIH-3T3 (CD74-ROS1 fusion gene) cells was obtained from Nanjing GenScript Biotechnology Co., Ltd. The engineered HEK293 cell lines with OATP1B1 (Lot. No ESH6G27), OATP1B3 (Lot. No ESH7G27), OCT2 (Lot. No ESH9G27), OAT1 (Lot. No ESHCG27), OAT3 (Lot. […] No ESHDG27) were purchased from GenoMembrane and validated using the specific substrate for each transporter. All cells were cultured at 37℃ in a 5% CO2 atmosphere. Cell culture reagents were obtained from Life Technologies, Inc. See Supplemental Table 1 for details on the source of the cell lines and the media used.

[11] = human, HEK293 cells expressing OATP1B1, probe ATV (atorvastatin), 1 μM, read-out: Inhibition rate
[12] = human, HEK293 cells expressing OATP1B3, probe ATV (atorvastatin), 1 μM, read-out: Inhibition rate
[13] = MOCK293, test substrate 10 μM, no inhibitor, pre-test
[14] = OATP1B1-293, test substrate 10 μM, no inhibitor, pre-test
[15] = test substrate 10 μM, no inhibitor, pre-test

Sequence of ALK^WT (Q9UM73 19-1620): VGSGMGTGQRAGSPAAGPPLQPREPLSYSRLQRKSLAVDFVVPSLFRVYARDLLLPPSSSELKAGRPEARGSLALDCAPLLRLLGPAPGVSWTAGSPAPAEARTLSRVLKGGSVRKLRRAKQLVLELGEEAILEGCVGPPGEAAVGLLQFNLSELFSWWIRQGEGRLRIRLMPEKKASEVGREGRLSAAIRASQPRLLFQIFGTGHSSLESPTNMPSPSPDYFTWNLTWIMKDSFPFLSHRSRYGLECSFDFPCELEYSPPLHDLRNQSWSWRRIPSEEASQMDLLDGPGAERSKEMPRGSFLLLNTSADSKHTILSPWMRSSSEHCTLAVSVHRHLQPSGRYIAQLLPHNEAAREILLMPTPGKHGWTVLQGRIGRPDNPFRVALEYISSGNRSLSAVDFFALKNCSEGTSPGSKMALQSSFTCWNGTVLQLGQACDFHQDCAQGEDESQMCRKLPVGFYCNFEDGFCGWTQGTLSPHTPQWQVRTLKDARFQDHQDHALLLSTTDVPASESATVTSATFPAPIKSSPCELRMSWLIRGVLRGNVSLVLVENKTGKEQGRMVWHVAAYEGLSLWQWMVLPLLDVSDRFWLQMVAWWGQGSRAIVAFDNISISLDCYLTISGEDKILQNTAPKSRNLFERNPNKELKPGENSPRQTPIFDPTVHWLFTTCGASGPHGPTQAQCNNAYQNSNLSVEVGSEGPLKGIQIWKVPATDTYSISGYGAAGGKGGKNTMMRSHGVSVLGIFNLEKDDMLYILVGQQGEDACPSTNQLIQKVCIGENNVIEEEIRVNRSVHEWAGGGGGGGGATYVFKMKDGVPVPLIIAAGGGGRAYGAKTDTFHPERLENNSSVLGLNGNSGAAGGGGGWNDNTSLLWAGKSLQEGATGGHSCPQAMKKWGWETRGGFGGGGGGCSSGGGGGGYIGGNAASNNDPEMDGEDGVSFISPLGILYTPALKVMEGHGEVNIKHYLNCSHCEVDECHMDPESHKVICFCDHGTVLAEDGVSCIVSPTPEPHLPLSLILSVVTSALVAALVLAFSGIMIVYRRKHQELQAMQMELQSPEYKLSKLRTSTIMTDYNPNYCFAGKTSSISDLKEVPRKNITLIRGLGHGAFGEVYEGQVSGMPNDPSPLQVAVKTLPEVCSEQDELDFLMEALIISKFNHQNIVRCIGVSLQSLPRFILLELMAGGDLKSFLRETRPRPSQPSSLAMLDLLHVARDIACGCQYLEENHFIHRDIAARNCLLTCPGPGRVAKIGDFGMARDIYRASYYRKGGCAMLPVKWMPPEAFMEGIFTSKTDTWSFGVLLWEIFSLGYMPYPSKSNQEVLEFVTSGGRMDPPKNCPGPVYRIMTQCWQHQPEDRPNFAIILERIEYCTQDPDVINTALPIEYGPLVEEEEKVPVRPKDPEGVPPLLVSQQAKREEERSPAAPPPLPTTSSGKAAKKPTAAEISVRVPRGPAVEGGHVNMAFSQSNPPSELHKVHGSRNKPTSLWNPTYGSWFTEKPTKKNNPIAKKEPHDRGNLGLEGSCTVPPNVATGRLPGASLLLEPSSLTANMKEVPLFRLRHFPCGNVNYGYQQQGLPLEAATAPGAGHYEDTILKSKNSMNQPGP
T2 sequence (Q86VL8 1-566 isoform Q86VL8-3): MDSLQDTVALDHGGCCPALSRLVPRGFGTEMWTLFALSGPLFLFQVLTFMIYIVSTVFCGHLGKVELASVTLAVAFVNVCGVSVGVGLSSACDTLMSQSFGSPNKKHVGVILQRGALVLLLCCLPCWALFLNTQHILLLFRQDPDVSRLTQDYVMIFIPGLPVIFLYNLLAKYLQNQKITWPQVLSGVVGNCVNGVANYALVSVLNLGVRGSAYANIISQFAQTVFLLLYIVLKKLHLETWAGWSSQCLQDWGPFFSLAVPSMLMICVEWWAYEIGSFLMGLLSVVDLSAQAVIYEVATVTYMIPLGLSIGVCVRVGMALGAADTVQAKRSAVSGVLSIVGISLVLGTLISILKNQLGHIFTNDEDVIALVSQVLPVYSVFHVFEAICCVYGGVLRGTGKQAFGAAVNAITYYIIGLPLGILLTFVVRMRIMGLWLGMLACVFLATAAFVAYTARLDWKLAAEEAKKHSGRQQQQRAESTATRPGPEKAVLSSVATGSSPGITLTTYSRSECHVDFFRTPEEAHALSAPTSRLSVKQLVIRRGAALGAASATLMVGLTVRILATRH
Sequence of AUR2 (O14965 whole entry): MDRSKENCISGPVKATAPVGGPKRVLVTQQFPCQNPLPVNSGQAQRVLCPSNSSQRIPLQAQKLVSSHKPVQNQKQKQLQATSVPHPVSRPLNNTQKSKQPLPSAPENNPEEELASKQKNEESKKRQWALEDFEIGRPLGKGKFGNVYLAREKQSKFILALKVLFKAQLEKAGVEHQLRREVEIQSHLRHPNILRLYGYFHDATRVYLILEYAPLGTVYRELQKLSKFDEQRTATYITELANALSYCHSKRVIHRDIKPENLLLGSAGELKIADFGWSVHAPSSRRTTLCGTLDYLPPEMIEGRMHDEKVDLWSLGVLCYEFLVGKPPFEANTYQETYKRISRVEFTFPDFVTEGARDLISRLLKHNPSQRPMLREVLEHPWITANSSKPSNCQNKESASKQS

SMILES: COc1cc(N2CCC3(CCN(C)CC3)CC2)ccc1Nc1ncc(Cl)c(Nc2ccccc2P(C)(C)=O)n1 [Iruplinalkib]
- IC50 [1]: 1.08 ± 0.106 µM
- inhibition of OATP1B1 uptake activity ([2]; HEK293): can inhibit the uptake activity
- inhibition at 0.5 μM [2, 11]: 26.5%
- inhibition at 5 μM [2, 11]: 28.9%
- inhibition at 50 μM [2, 11]: 67.8%
- IC50 [3]: 0.00538 µM and < 0.01 µM
- phosphorylation levels of ROS1, AKT, ERK [4]: inhibited
- phosphorylation levels of ROS1, ERK, SHP-1 [5]: inhibited
- substrate of BCRP ([6]; Caco-2): not for breast cancerresistance protein (BCRP)
- substrate of P-gp ([6]; Caco-2): transported substrate
- Exhaust Ratio Mean ([6]; Iruplinalkib 0.5 µM as substrate, with Ko143 10 µM): 20.95
- Exhaust Ratio Mean ([6]; Iruplinalkib 5 µM as substrate, with Ko143 10 µM): 26.14
- Exhaust Ratio Mean ([6]; Iruplinalkib 5 µM as substrate, with Verapamil 50 µM): 2.626
- efflux ratio at 0.5 µM ([6]; Caco-2): 20.3
- efflux ratio at 5 µM ([6]; Caco-2): 84.2
- efflux ratio at 50 µM ([6]; Caco-2): 8.02
- efflux ratio at 0.5 µM ([6]; Caco-2, with Elacridar 10 µM): 2.81
- efflux ratio at 5 µM ([6]; Caco-2, with Elacridar 10 µM): 0.605
- efflux ratio at 50 µM ([6]; Caco-2, with Elacridar 10 µM): 0.614
- efflux ratio at 50 µM ([6]; Caco-2, with Ko143 10 µM): 9.89
- efflux ratio at 0.5 µM ([6]; Caco-2, with Verapamil 50 µM): 3.46
- efflux ratio at 50 µM ([6]; Caco-2, with Verapamil 50 µM): 1.95
- inhibition of MATE2K [7]: stronger inhibitor
- inhibition at 0.5 μM [8]: 46.4%
- inhibition at 5 μM [8]: 94.5%
- inhibition at 50 μM [8]: 112%
- inhibition of OATP1B3 uptake activity ([9]; HEK293): can inhibit the uptake activity
- inhibition at 0.5 μM [9, 12]: 7.2%
- inhibition at 5 μM [9, 12]: 15.3%
- inhibition at 50 μM [9, 12]: 41.1%
- uptake transport activity ratio, OATP1B1 ([10]; 30 µM, 3 µM, 0.3 µM, HEK293): less than two
- uptake substrate of OATP1B1 ([10]; HEK293): not an uptake substrate
- Uptake transport activity, Mean ([10]; MOCK293 (OATP1B1 set), 0.3 μM, Suppl. Table 11): 7.468 pmol/mg protein/min
- Uptake transport activity, Mean ([10]; MOCK293 (OATP1B1 set), 3 μM, Suppl. Table 11): 54.18 pmol/mg protein/min
- Uptake transport activity, Mean ([10]; MOCK293 (OATP1B1 set), 30 μM, Suppl. Table 11): 601.2 pmol/mg protein/min
- Uptake transport activity, Mean [10, 13]: 102.0 pmol/mg protein/min
- Uptake transport activity, Repeat 1 / Repeat 2 [10, 13]: 100.4 pmol/mg protein/min and 103.6 pmol/mg protein/min
- Uptake transport activity, Mean ([10]; OATP1B1-293, 0.3 μM, Suppl. Table 11): 8.227 pmol/mg protein/min
- Uptake transport activity, Mean ([10]; OATP1B1-293, 3 μM, Suppl. Table 11): 46.74 pmol/mg protein/min
- Uptake transport activity, Mean ([10]; OATP1B1-293, 30 μM, Suppl. Table 11): 564.7 pmol/mg protein/min
- Uptake transport activity, Mean [10, 14]: 55.08 pmol/mg protein/min
- Uptake transport activity, Repeat 1 / Repeat 2 [10, 14]: 50.74 pmol/mg protein/min and 59.41 pmol/mg protein/min
- Ratio of uptake transit activity ([10]; 0.3 μM, Suppl. Table 11): 1.10
- Uptake transport activity, Net value ([10]; 0.3 μM, Suppl. Table 11): 0.759 pmol/mg protein/min
- Ratio of uptake transit activity ([10]; 3 μM, Suppl. Table 11): 0.86
- Uptake transport activity, Net value ([10]; 3 μM, Suppl. Table 11): -7.440 pmol/mg protein/min
- Ratio of uptake transit activity ([10]; 30 μM, Suppl. Table 11): 0.94
- Uptake transport activity, Net value ([10]; 30 μM, Suppl. Table 11): -36.47 pmol/mg protein/min
- Ratio of uptake transit activity [10, 15]: 0.54
- Uptake transport activity, Net value [10, 15]: -46.9 pmol/mg protein/min
